This is an account of results in patent publication US9902733B2, “Furopyridines as inhibitors of protein kinases” (MASARYKOVA UNIVERZITA, priority 2014, dated 2018).

Common to all, as to format: biochemical
The target in assay [1] is T1, HIPK2(h) (Homo sapiens, UniProt Q9H2X6).
T1 construct: purchased Merck Millipore (KinaseProfiler service)
As to the kind of experiment: HIPK2 KinaseProfiler radiometric protein kinase assay. The conditions noted are these: 10 μM ATP, 40 minutes at room temperature. The method, then: (§1) In vitro essays were performed by the company Merck Millipore in their KinaseProfiler radiometric protein kinase assay as paid commercial service. The compounds IC50 values for inhibition of individual protein kinases were determined. Dose-response curves were plotted from inhibition data generated, each in duplicate, from 10 point serial dilutions of inhibitory compounds. Concentration of compound was plotted against % kinase activity. To generate IC50 values, the dose-response curves were fitted to a standard sigmoidal curve and IC50 values were derived by standard nonlinear regression analysis.
(§2) All tested compounds were prepared in 100% DMSO to final assay concentrations either 0.5 mM (for the concentration row A, see below) or 0.05 mM (for the concentration row B). This working stock of the compound was added to the assay well as the first component in the reaction, followed by the remaining components as detailed below. The stock solution was added to the individual assay wells in such amounts that the concentrations of the compound were either in the row A (0.001 μM, 0.003 μM, 0.01 μM, 0.03 μM, 0.1 μM, 0.3 μM, 1.0 μM, 3.0 μM, and 10.0 μM) or in the row B (0.0001 μM, 0.0003 μM, 0.001 μM, 0.003 μM, 0.01 μM, 0.03 μM, 0.1 μM, 0.3 μM, and 1.0 μM). There was no pre-incubation step between the compound and the kinase prior to initiation of the reaction.
(§3) The positive control wells contained all components of the reaction, except the compound of interest; however, DMSO (at a final concentration of 2%) was included in these wells to control for solvent effects. The blank wells contained all components of the reaction, with staurosporine as a reference inhibitor replacing the compound of interest. This abolished kinase activity and established the base-line (0% kinase activity remaining).
HIPK2(h) was diluted in the buffer (20 mM MOPS, 1 mM EDTA, 0.01% Brij-35, 5% Glycerol, 0.1% β-mercaptoethanol, 1 mg/mL BSAs) to the concentration of 1.01 mg/mL prior to addition to the reaction mix.
(§4) The above stock solution of HIPK2(h) was added to a mixture containing 8 mM MOPS pH 7.0, 0.2 mM EDTA, and 0.33 mg/mL myelin basic protein in such amount that the resulting concentration of HIPK2(h) was 1.4 nM. This mixture was added to the stock solution of the tested compound. The reaction was initiated by the addition of the MgATP mix in such amount that the resulting concentration of Mg acetate in the reaction mixture was 10 mM and [γ-^33P-ATP] (specific activity approx. 500 cpm/pmol) was 10 μM. After incubation for 40 minutes at room temperature, the reaction was stopped by the addition of 3% phosphoric acid solution. 10 μL of the reaction was then spotted onto a P30 filtermat and washed three times for 5 minutes in 75 mM phosphoric acid and once in methanol prior to drying and scintillation counting.

The target in assay [2] is T2, CLK4 (h) (Homo sapiens, UniProt Q9HAZ1).
T2 construct: purchased Merck Millipore (KinaseProfiler service)
As to the kind of experiment: CLK4 KinaseProfiler radiometric protein kinase assay. Conditions: 15 μM ATP, 40 minutes at room temperature. The method, then:
as §1, §2, §3
CLK4 (h) was diluted in the buffer (20 mM MOPS, 1 mM EDTA, 0.01% Brij-35, 5% Glycerol, 0.1% β-mercaptoethanol, 1 mg/mL BSAs) to the concentration of 1.01 mg/mL prior to addition to the reaction mix.
as §4, with “solution of CLK4(h) was added” for “solution of HIPK2(h) was added”, “EDTA, and 200 μM […](p) EDEEE in such” for “EDTA, and 0.33 mg/mL myelin basic protein in such”, “concentration of CLK4(h) was 140.8” for “concentration of HIPK2(h) was 1.4”, “CLK4(h) was 140.8 nM. This” for “HIPK2(h) was 1.4 nM. This”, “cpm/pmol) was 15 μM. After” for “cpm/pmol) was 10 μM. After”

Assay [3] addresses T3, HIPK1(h) (Homo sapiens, UniProt Q86Z02).
T3 construct: purchased Merck Millipore (KinaseProfiler service)
As to the kind of experiment: HIPK1 KinaseProfiler radiometric protein kinase assay. The conditions noted are these: 45 μM ATP, 40 minutes at room temperature. The method, then:
as §1, §2, §3
HIPK1(h) was diluted in the buffer (20 mM MOPS, 1 mM EDTA, 0.01% Brij-35, 5% Glycerol, 0.1% β-mercaptoethanol, 1 mg/mL BSAs) to the concentration of 1.01 mg/mL prior to addition to the reaction mix.
as §4, with “solution of HIPK1(h) was added” for “solution of HIPK2(h) was added”, “concentration of HIPK1(h) was 4.7” for “concentration of HIPK2(h) was 1.4”, “HIPK1(h) was 4.7 nM. This” for “HIPK2(h) was 1.4 nM. This”, “cpm/pmol) was 45 μM. After” for “cpm/pmol) was 10 μM. After”

Assay [4] concerns the target T4, CLK2 (h) (Homo sapiens, UniProt P49760).
T4 construct: purchased Merck Millipore (KinaseProfiler service)
As to the kind of experiment: CLK2 KinaseProfiler radiometric protein kinase assay. The method, then: as §1, §2, §3
CLK2 (h) was diluted in the buffer (20 mM MOPS (3-(N-morpholino)propanesulfonic acid), 1 mM EDTA (ethylendiaminotetraacetic acid), 0.01% Brij-35 (detergent), 5% Glycerol, 0.1% β-mercaptoethanol, 1 mg/mL BSAs) to the concentration of 1.01 mg/mL prior to addition to the reaction mix.
as §4, with “solution of CLK2(h) was added” for “solution of HIPK2(h) was added”, “EDTA, and 20 μM […](p) EDEEE in such” for “EDTA, and 0.33 mg/mL myelin basic protein in such”, “concentration of CLK2(h) was 2.1” for “concentration of HIPK2(h) was 1.4”, “CLK2(h) was 2.1 nM. This” for “HIPK2(h) was 1.4 nM. This”, “cpm/pmol) was 15 μM. After” for “cpm/pmol) was 10 μM. After”

Assay [5] has as its target T5, DYRK2 (Homo sapiens, UniProt Q92630).
T5 construct: purchased Merck Millipore (KinaseProfiler service)
T5 sequence (Q92630 1-601): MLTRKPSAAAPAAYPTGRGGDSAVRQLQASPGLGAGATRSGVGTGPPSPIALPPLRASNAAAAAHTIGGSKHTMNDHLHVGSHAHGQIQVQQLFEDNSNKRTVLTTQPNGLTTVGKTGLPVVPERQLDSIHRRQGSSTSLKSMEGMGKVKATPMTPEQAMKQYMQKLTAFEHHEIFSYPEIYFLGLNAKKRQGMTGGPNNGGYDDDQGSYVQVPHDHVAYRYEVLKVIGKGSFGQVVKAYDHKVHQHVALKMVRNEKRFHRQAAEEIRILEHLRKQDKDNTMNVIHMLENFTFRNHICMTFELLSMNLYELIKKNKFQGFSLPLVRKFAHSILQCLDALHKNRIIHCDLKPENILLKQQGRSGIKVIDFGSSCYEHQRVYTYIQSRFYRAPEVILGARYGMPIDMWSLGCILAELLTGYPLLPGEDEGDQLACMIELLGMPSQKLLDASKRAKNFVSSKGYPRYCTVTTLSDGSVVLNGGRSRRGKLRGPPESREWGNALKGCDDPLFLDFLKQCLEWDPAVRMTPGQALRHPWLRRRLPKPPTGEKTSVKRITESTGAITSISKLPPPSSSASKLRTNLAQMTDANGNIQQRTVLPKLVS
As to the kind of experiment: DYRK2 KinaseProfiler radiometric protein kinase assay. The method, then: as §1, §2, §3

Setting [6] is: radiometric, 15 μM ATP, 40 minutes at room temperature, read-out: CLK2 IC50.

For orientation: IC50 means the concentration that gives 50% inhibition.

Where two headings read alike, the source gives them in different places.

T3 sequence (Q86Z02 whole entry): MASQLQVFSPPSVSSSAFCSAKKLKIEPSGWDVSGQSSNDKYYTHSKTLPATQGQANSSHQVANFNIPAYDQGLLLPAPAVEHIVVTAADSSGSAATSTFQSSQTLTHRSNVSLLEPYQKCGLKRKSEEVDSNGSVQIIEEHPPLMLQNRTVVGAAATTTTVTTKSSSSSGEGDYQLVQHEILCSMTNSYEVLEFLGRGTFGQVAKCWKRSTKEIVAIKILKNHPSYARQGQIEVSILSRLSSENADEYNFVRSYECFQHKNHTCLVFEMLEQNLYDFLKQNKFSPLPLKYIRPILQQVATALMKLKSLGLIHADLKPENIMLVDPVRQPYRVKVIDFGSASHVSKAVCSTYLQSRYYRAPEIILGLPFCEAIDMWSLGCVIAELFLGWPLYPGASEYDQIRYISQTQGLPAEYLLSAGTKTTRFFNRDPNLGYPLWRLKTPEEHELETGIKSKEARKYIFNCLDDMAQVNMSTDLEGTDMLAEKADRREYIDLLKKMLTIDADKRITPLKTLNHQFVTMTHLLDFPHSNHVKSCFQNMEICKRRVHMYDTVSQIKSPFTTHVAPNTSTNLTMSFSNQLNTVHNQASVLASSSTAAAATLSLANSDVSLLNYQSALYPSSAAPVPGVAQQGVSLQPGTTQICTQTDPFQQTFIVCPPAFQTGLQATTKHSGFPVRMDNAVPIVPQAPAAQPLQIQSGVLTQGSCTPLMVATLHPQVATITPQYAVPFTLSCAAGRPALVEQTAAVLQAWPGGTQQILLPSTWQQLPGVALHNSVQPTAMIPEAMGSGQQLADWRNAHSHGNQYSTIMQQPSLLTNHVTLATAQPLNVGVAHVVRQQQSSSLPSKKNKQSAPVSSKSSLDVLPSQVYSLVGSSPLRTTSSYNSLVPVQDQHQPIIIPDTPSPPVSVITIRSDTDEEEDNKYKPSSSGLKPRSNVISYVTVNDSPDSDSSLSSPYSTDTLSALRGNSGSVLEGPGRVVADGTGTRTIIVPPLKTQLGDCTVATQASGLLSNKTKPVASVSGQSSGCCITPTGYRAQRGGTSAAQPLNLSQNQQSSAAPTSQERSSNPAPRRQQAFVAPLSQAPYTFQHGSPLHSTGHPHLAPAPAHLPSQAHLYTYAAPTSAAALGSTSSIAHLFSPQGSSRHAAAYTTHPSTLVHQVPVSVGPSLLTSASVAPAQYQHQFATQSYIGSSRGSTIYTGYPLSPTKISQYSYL
T1 sequence (Q9H2X6 whole entry): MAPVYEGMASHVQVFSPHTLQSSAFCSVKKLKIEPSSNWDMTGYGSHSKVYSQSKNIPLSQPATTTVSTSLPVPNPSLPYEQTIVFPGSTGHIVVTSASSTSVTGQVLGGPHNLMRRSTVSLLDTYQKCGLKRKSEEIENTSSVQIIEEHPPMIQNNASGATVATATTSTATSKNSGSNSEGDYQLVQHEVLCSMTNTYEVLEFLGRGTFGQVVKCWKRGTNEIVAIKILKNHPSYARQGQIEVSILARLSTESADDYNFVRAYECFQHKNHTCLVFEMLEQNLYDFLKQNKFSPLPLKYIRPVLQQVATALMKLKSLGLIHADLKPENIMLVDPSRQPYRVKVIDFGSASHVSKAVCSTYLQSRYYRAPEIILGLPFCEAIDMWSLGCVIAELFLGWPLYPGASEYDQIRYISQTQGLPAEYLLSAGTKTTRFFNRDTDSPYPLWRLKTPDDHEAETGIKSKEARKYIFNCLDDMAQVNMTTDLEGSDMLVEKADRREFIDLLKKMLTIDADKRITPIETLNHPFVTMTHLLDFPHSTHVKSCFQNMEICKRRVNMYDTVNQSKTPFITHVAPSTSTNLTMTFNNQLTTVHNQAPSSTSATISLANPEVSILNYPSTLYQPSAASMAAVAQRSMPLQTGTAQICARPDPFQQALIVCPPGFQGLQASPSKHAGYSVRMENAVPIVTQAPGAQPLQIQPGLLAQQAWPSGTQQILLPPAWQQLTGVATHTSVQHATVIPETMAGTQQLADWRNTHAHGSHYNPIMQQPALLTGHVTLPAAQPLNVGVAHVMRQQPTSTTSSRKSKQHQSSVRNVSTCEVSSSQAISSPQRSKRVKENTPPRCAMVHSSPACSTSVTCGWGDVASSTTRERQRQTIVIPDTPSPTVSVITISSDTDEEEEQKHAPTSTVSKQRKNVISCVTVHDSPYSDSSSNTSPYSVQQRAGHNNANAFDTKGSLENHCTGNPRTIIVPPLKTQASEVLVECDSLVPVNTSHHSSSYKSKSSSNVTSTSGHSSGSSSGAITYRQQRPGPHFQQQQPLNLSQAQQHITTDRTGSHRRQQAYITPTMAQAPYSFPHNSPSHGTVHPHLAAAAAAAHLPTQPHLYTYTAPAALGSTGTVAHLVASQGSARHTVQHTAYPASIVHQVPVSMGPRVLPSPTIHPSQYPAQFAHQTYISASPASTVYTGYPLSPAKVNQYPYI
T4 sequence (P49760 whole entry): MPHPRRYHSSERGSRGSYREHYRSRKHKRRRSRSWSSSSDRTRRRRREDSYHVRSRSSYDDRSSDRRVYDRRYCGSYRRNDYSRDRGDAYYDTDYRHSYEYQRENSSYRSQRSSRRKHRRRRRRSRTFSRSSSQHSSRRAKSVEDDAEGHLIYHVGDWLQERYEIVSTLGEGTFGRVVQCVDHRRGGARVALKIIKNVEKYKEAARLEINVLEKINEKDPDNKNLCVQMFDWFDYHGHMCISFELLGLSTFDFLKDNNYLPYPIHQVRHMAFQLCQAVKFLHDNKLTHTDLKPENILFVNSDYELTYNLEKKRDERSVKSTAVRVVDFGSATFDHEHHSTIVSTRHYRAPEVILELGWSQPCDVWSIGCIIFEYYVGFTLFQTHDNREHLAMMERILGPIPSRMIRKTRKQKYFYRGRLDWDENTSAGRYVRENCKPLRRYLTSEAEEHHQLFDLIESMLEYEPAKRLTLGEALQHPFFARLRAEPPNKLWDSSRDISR
T2 sequence (Q9HAZ1 whole entry): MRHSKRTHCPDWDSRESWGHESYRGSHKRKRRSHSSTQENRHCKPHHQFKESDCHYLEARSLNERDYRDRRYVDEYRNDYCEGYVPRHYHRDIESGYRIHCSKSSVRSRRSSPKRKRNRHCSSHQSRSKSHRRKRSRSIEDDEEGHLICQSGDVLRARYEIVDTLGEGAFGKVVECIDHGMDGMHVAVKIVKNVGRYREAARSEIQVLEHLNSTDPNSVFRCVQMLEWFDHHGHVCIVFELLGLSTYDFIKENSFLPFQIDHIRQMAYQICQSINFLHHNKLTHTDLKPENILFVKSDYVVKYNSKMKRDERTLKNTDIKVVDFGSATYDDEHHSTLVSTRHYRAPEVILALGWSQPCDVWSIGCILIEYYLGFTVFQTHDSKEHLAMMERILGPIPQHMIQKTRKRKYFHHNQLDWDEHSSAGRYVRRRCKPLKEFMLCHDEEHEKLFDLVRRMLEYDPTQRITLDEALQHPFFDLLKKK

Consider `c1ccc(-c2coc3ccc(-c4cccnc4)nc23)cc1` [Preparative Example 6D], for which the IC50 in assay [1] is < 5000 nM; in assay [2], < 1000 nM; in assay [3], < 5000 nM; in assay [4] (setting [6]) it was < 5000 nM.

For the compound `CC(C)n1cc(-c2ccc3occ(-c4ccc5ccccc5c4)c3n2)cn1` [Preparative Example 7C], the IC50 in assay [1], in assay [2] and in assay [4] (setting [6]) was < 5000 nM in each case.

In the case of `c1ccc2cc(-c3coc4ccc(-c5cncs5)nc34)ccc2c1` [Preparative Example 7F], the IC50 in assay [1] is < 100 nM; in assay [2], < 1000 nM; in assay [3], < 1000 nM; in assay [4] (setting [6]), < 1000 nM.

Regarding `Cn1cc(-c2ccc3occc3n2)cn1` [Preparative Example 12B], the IC50 in assay [2] is < 1000 nM; in assay [4] (setting [6]), < 5000 nM.

For the compound `CCc1coc2ccc(-c3cnn(C)c3)nc12` [Preparative Example 23], the IC50 in assay [2] is < 1000 nM; in assay [5] it was < 5000 nM; in assay [4] (setting [6]), < 1000 nM.

For the compound `CC(C)(C)c1ccc(-c2coc3ccc(-c4cn[nH]c4)nc23)cc1` [Preparative Example 54], the IC50 is < 1000 nM in assay [1], < 5000 nM in assay [2], < 1000 nM in assay [3] and < 5000 nM in assay [4].

For the compound `CC(C)(C)c1coc2ccc(-c3cn[nH]c3)nc12` [Preparative Example 55], the IC50 in assay [2] and in assay [4] (setting [6]) was < 1000 nM throughout.

As for `Cn1cc(-c2ccc3occ(-c4cccc(-c5ccccc5)c4)c3n2)cn1` [Preparative Example 61], the IC50 is < 100 nM in assay [1]; < 100 nM in assay [2]; < 5000 nM in assay [5]; < 1000 nM in assay [3]; < 100 nM in assay [4] (setting [6]).

Regarding `c1ccc2cc(-c3coc4ccc(-c5cnoc5)nc34)ccc2c1` [Preparative Example 62], the IC50 in assay [1] was < 1000 nM; in assay [2] it was < 5000 nM; in assay [3], < 1000 nM; in assay [4] (setting [6]), < 5000 nM.

On to `Cn1cc(-c2ccc3occ(-c4ccc5cn[nH]c5c4)c3n2)cn1` [Preparative Example 65], for which the IC50 in assay [5] is < 1000 nM; in assay [3], < 1000 nM; in assay [4] (setting [6]), < 100 nM.

For `Cn1cc(-c2ccc3occ(-c4ccc(C(N)=O)cc4)c3n2)cn1` [Preparative Example 66], the IC50 in assay [5] is < 5000 nM; in assay [3], < 1000 nM; in assay [4] (setting [6]), < 1000 nM.

In the case of `Cn1cc(-c2ccc3occ(-c4ccc(CO)cc4)c3n2)cn1` [Preparative Example 70], the half-maximal inhibitory concentration (IC50) in assay [5] is < 5000 nM; in assay [3] it was < 1000 nM; in assay [4] (setting [6]), < 1000 nM.

As to `Cn1cc(-c2ccc3occ(-c4ccc(S(C)(=O)=O)cc4)c3n2)cn1` [Preparative Example 71], the IC50 is < 5000 nM in assay [5], < 5000 nM in assay [3] and < 1000 nM in assay [4] (setting [6]).

Turning to `Cn1cc(-c2ccc3occ(-c4ccc([S+](C)[O-])cc4)c3n2)cn1` (stereo not drawn) [Preparative Example 73], the IC50 in assay [5] and in assay [4] (setting [6]) was < 5000 nM in each case.

For `Cn1cc(-c2ccc3occ(-c4cccc(C(C)(C)C)c4)c3n2)cn1` [Preparative Example 74], the figures for the IC50 in assay [3] and in assay [4] (setting [6]) were < 5000 nM and < 1000 nM, respectively.

As to `Cc1cc2occ(-c3ccc4ccccc4c3)c2nc1-c1cnn(C)c1` [Preparative Example 80], the IC50 in assay [4] (setting [6]) is < 1000 nM.

As to `Cn1cc(-c2ccc3occ(-c4ccc(-c5nnn[nH]5)cc4)c3n2)cn1` [Preparative Example 81], the IC50 in assay [5], in assay [3] and in assay [4] (setting [6]) was < 5000 nM throughout.
